According to patent US4855287A, “Aminoglycoside compounds, processes for production thereof, and pharamaceutical composition containing the same” (Kowa Company, Ltd., priority 1985, dated 1989):
Where two headings read alike, the source gives them in different places.

Tested on: Bacillus subtilis ATCC 6633
Experiment: Test for antibacterial activity (paper disk, diameter of inhibitory zone, before and after incubation in rat liver/kidney homogenate)
Type: cell-based
Settings: 200 mcq/ml, 8 mm paper disk
Description: Each of the test compounds shown in the following table was dissolved in a concentration of 200 mcq/ml in a homogenate of a 10% physiological saline solution of an organ of a rat, and incubated at 37° C. for 2 hours. An enzymatic reaction was stopped by adding an equal amount of ethanol. The antibacterial activity of the test compound before incubation was compared with that after incubation. The incubation was carried out in an equal amount mixture of a liver homogenate and a kidney homogenate. The antibacterial activity was measured by a paper disk having a diameter of 8 mm using Bacillus subtilis ATCC 6633 as a test organism, and shown by the diameter of the resulting inhibitory zone.

[1] = ATCC6633, after incubation at 37° C. for 2 hours in rat liver homogenate and kidney homogenate, read-out: Diameter of the inhibitory zone, after incubation
[2] = ATCC6633, before incubation, read-out: Diameter of the inhibitory zone, before incubation

| SMILES | zone of inhibition at 200 µg/mL [1] [mm] | zone of inhibition at 200 µg/mL [2] [mm] |
| --- | --- | --- |
| CCCCCCCCCCCCCCCCCC(=O)OCC(O)COC(=O)C[C@H](N)C(=O)NCC(=O)N(C)C1C(O)CC(N)C(OC2OC(C(C)N)CCC2N)C1O (stereo partly drawn) [Example 13, 2"-N-[β-O-(3-stearoyloxy-2-hydroxypropyl)-L-aspartyl]-5-de-O-methyl-KA-6606I] | 18.8 | 13.7 |
| CC(=O)OC1CCC2(C)C(CCC3C2CC(OC(C)=O)C2(C)C(C(C)CCC(=O)NCCCNC(=O)CCC(N)C(=O)NCC(=O)N(C)C4C(O)CC(N)C(OC5OC(C(C)N)CCC5N)C4O)CCC32)C1 [Example 45, 2"-N-{N^γ -[3-(3,12-di-O-acetyldeoxycholylamino)propyl]-L-glutaminyl}-5-de-O-methyl-KA-6606I] | 16.7 | 14.8 |
| CCCCCCNC(=O)CNC(=O)CC[C@H](N)C(=O)NCC(=O)N(C)C1C(O)CC(N)C(OC2OC(C(C)N)CCC2N)C1O (stereo partly drawn) [Example 44, 2"-N-[N^γ -(hexylaminocarbonylmethyl)-L-glutaminyl]-5-de-O-methyl-KA-6606I] | 20.2 | 8 |
| CCCCCCCCCCCCCCCCCC(=O)NCC(=O)NCCCC[C@H](N)C(=O)NCC(=O)N(C)C1C(O)CC(N)C(OC2OC(C(C)N)CCC2N)C1O (stereo partly drawn) [Example 6, 2"-N-[N^ε -(N-stearoylglysyl)-L-lysyl]-5-de-O-methyl-KA-6606I] | 16.6 | 10.5 |
| CCCCCCCC(=O)NCCCNC(=O)CC[C@H](N)C(=O)NCC(=O)N(C)C1C(O)CC(N)C(OC2OC(C(C)N)CCC2N)C1O (stereo partly drawn) [Example 37, 2"-N-[N^γ -(3-octanoylaminopropyl)-L-glutaminyl]-5-do-O-methyl-KA-6606I] | 25.1 | 14.1 |
| COc1ccc(CSC[C@H](N)C(=O)NCC(=O)N(C)C2C(O)CC(N)C(OC3OC(C(C)N)CCC3N)C2O)cc1 (stereo partly drawn) [Example 51, 2"-N-[S-(p-methoxybenzyl)-L-cysteinyl]-5-de-O-methyl-KA-6606I] | 25.4 | 18.3 |
| CCCC(=O)NCCCNC(=O)CC[C@H](N)C(=O)NCC(=O)N(C)C1C(O)CC(N)C(OC2OC(C(C)N)CCC2N)C1O (stereo partly drawn) [Example 35, 2"-N-[N^γ -(3-n-butyrylaminopropyl)-L-glutaminyl]-5de-O-methyl-KA-6606I] | 20.7 | 10.7 |
| CC(N)C1CCC(N)C(OC2C(N)CC(O)C(N(C)C(=O)CNC(=O)[C@@H](N)CC(=O)Oc3ccccc3)C2O)O1 (stereo partly drawn) [Example 11, 2"-N-(β-O-phenyl-L-aspartyl)-5-de-O-methyl-KA-6606I] | 19 | 14 |
| CCCOC1CCC2(C)C(CCC3C2CC(OCCC)C2(C)C(C(C)CCC(=O)NCCCNC(=O)CCC(N)C(=O)NCC(=O)N(C)C4C(O)CC(N)C(OC5OC(C(C)N)CCC5N)C4O)CCC32)C1 [Example 46, 2"-N-{N^γ -[3-(3,12-di-O-propyldeoxycholylamino)propyl]-L-glutaminyl}-5-di-O-methyl-KA-6606I] | 16.6 | 15.9 |
| CCCCCCCCOC(=O)C[C@H](N)C(=O)NCC(=O)N(C)C1C(O)CC(N)C(OC2OC(C(C)N)CCC2N)C1O (stereo partly drawn) [Example 10, 2"-N-(β-O-octyl-L-aspartyl)-5-de-O-methyl-KA-6606I] | 21.1 | 14.2 |
| CCCCCCCCCC(=O)NC(CCCCNC(=O)CC[C@H](N)C(=O)NCC(=O)N(C)C1C(O)CC(N)C(OC2OC(C(C)N)CCC2N)C1O)C(=O)OC (stereo partly drawn) [Example 48, 2"-N-{N^γ -[5-(decanoylamino)-5-(methoxycarbonyl)pentyl]-L-glutaminyl}-5-de-O-methyl-KA-6606I] | 18.3 | 18 |
| CC(=O)NCCCC[C@H](N)C(=O)NCC(=O)N(C)C1C(O)CC(N)C(OC2OC(C(C)N)CCC2N)C1O (stereo partly drawn) [Example 1, 2"-N-(N^ε -acetyl-L-lysyl)-5-de-O-methyl-KA-6606I] | 25.1 | 14.1 |
| CCCCCCCCCC(=O)NCC(=O)NCCCC[C@H](N)C(=O)NCC(=O)N(C)C1C(O)CC(N)C(OC2OC(C(C)N)CCC2N)C1O (stereo partly shown) [Example 5] | 21 | 15.5 |
| CCCCCCCCCC(=O)OCCCOC(=O)CC[C@H](N)C(=O)NCC(=O)N(C)C1C(O)CC(N)C(OC2OC(C(C)N)CCC2N)C1O (stereo partly drawn) [Example 18, 2"-N-[γ-O-(3-decanoyloxypropyl)-L-glutamyl]-5-de-O-methyl-KA-6606I] | 23.9 | 16.8 |
| CCCCCCCCCC(=O)NCCCNC(=O)CC[C@H](N)C(=O)NCC(=O)N(C)C1C(O)C(OC2OC(C(C)N)CCC2N)C(N)C(O)C1OC (stereo partly drawn) [Example 50, 2"-N-[N^γ -(3-decanoylaminopropyl)-L-glutaminyl)fortimicin A] | 23.6 | 15 |
| CC(N)C1CCC(N)C(OC2C(N)CC(O)C(N(C)C(=O)CNC(=O)[C@@H](N)CCC(=O)OCCCCOC(=O)CC[C@@H](C)[C@H]3CC[C@H]4[C@@H]5CC[C@@H]6C[C@H](O)CC[C@]6(C)[C@H]5C[C@H](O)[C@]34C)C2O)O1 (stereo partly drawn) [Example 26, 2"-N-[γ-O-(4-deoxycholyloxybutyl)-L-glutamyl]-5-de-O-methyl-KA-6606I] | 21.8 | 14.8 |
| CCCCCCCCCCCCCCCCCC(=O)OCCCOC(=O)CC[C@H](N)C(=O)NCC(=O)N(C)C1C(O)CC(N)C(OC2OC(C(C)N)CCC2N)C1O (stereo partly drawn) [Example 19, 2"-N-[γ-O-(3-stearoyloxypropyl)-L-glutamyl]-5-de-O-methyl-KA-6606I] | 22.7 | 13.7 |
| CC(N)C1CCC(N)C(OC2C(N)CC(O)C(N(C)C(=O)CNC(=O)[C@@H](N)CCC(=O)Nc3cccc4ccccc34)C2O)O1 (stereo partly drawn) [Example 33, 2"-N-[N^γ-(1-naphthyl)-L-glutamin-yl]-de-O-methyl-KA-6606I] | 23.5 | 15.7 |
| CC(N)C1CCC(N)C(OC2C(N)CC(O)C(N(C)C(=O)CNC(=O)[C@@H](N)CSCc3ccc([N+](=O)[O-])cc3)C2O)O1 (stereo partly drawn) [Example 52, 2"-N-[S-(p-nitrobenzyl)-L-cysteinyl]-5-de-O-methyl-KA-6606I] | 26.2 | 20.7 |
| CCCCCCCCCC(=O)OCC(CCCCOC(=O)CC[C@H](N)C(=O)NCC(=O)N(C)C1C(O)CC(N)C(OC2OC(C(C)N)CCC2N)C1O)OC(=O)CCCCCCCCC (stereo partly drawn) [Example 23, 2"-N-{γ-[5,6-bis-(decanoyloxy)hexyl]-L-glutamyl}-5-de-O-methyl-KA-6606I] | 19.5 | 10.5 |
| CCCCCCCCCC(=O)NCCCOC(=O)CC[C@H](N)C(=O)NCC(=O)N(C)C1C(O)CC(N)C(OC2OC(C(C)N)CCC2N)C1O (stereo partly drawn) [Example 28, 2"-N-[γ-O-(3-decanoylaminopropyl)-L-glutamyl]-5-de-O-methyl-KA-6606I] | 23.9 | 14.6 |
| CCCCCC(=O)NCCCNC(=O)CC[C@H](N)C(=O)NCC(=O)N(C)C1C(O)CC(N)C(OC2OC(C(C)N)CCC2N)C1O (stereo partly drawn) [Example 36, 2"-N-[N^γ -(3-hexanoylaminopropyl)-L-glutaminyl]-5-de-O-methyl-KA-6606I] | 22.8 | 10.5 |
| CC(N)C1CCC(N)C(OC2C(N)CC(O)C(N(C)C(=O)CNC(=O)[C@@H](N)CCC(=O)NCCCCCCCCO)C2O)O1 (stereo partly drawn) [Example 42, 2"-N-[N^γ -(8-hydroxyoctyl)-L-glutaminyl]-5-de-O-methyl-KA-6606I] | 23 | 15.1 |
| CC(N)C1CCC(N)C(OC2C(N)CC(O)C(N(C)C(=O)CNC(=O)[C@@H](N)CCC(=O)N[C@@H](Cc3ccccc3)C(=O)O)C2O)O1 (stereo partly drawn) [Example 47, 2"-N-{N^γ -[(s)-1-carboxy-2-phenyl-ethyl]-L-glutaminyl}-5-de-O-methyl-KA-6606I] | 17.9 | 9.5 |
| CC(=O)NCCCNC(=O)CC[C@H](N)C(=O)NCC(=O)N(C)C1C(O)CC(N)C(OC2OC(C(C)N)CCC2N)C1O (stereo partly drawn) [Example 34, 2"-N-[N^γ -(3-acetylaminopropyl)-L-glutaminyl]-5-de-O-methyl-KA-66061] | 23.1 | 10.7 |
| CCCCCCCCCC(=O)NCCCNC(=O)CC[C@H](N)C(=O)NCC(=O)N(C)C1C(OC)CC(N)C(OC2OC(CNC)CCC2N)C1O (stereo partly drawn) [Example 57, 2"-N-[N^γ -(3-decanoylaminopropyl)-L-glutaminyl]-KA-7038I] | 23 | 15.9 |
| CCCCCCCCCC(=O)OCC(CCOC(=O)CC[C@H](N)C(=O)NCC(=O)N(C)C1C(O)CC(N)C(OC2OC(C(C)N)CCC2N)C1O)OC(=O)CCCCCCCCC (stereo partly drawn) [Example 22, 2"-N-{γ-[3,4-bis-(decanoyloxy)butyl]-L-glutamyl}-5-de-O-methyl-KA-6606I] | 18.3 | 10.7 |
| CCCCCCCCCC(=O)SC[C@H](N)C(=O)NCC(=O)N(C)C1C(O)CC(N)C(OC2OC(C(C)N)CCC2N)C1O (stereo partly drawn) [Example 55, 2"-N-(S-decanoyl-L-cysteinyl)-5-de-O-methyl-KA-6606I] | 18.6 | 10.3 |
| CC(N)C1CCC(N)C(OC2C(N)CC(O)C(N(C)C(=O)CNC(=O)[C@@H](N)CCCCNC(=O)CC[C@@H](C)[C@H]3CC[C@H]4[C@@H]5CC[C@@H]6C[C@H](O)CC[C@]6(C)[C@H]5C[C@H](O)[C@]34C)C2O)O1 (stereo partly drawn) [Example 4, 2"-N-(N^ε -deoxycholyl-L-lysyl)-5-de-O-methyl-KA-6606I] | 19.8 | 12.7 |
